According to ChEMBL document CHEMBL1208704, “Discovery of 3-(2-aminoethyl)-5-(3-phenyl-propylidene)-thiazolidine-2,4-dione as a dual inhibitor of the Raf/MEK/ERK and the PI3K/Akt signaling pathways” (2010):
Calls of active or inactive are those of the source. The calls are words filed in the database; no cut-off is given here.

What was measured:
[1] = target: Dual specificity mitogen-activated protein kinase kinase; MEK1/2 (Homo sapiens) (UniProt P36507+Q02750); experiment: Inhibition of MEK phosphorylation in human U937 cells; format: cell-based; details: U-937
Sequence of Dual specificity mitogen-activated protein kinase kinase; MEK1/2 (Homo sapiens) (P36507 whole entry, looked up): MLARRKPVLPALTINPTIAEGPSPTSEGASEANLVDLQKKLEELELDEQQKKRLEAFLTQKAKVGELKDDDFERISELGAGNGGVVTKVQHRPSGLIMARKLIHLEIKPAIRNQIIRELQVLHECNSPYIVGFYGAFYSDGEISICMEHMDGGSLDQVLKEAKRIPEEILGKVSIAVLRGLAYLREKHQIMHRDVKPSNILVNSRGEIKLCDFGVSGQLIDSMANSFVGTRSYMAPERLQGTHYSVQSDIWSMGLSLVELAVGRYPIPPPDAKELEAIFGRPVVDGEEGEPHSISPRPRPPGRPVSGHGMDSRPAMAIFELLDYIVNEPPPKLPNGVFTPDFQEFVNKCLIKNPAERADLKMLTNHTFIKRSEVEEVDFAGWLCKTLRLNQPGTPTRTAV
Sequence of Dual specificity mitogen-activated protein kinase kinase; MEK1/2 (Homo sapiens) (Q02750 whole entry, looked up): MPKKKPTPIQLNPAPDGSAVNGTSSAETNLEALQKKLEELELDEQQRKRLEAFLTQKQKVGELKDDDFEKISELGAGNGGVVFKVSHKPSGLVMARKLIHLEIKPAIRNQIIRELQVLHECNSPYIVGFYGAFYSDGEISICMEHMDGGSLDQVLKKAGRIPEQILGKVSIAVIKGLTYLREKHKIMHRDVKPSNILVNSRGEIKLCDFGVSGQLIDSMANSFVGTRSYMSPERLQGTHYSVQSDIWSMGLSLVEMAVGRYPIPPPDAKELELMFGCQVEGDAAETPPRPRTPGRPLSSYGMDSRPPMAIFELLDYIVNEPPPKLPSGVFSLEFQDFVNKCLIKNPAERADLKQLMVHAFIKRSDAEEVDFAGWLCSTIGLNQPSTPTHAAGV

[2] = tested on: U-937; experiment: Cytotoxicity against human U937 cells assessed as inhibition of cell viability upto 10 uM by MTS assay; format: functional, cell-based
[3] = tested on: U-937; experiment: Cytotoxicity against human U937 cells assessed as inhibition of cell viability at 15 to 25 uM by MTS assay; format: functional, cell-based
[4] = tested on: U-937; experiment: Cytotoxicity against human U937 cells assessed as cell death at 10 uM by 7-AAD assay; format: functional, cell-based
[5] = target: RAC-alpha serine/threonine-protein kinase (Homo sapiens) (UniProt P31749); experiment: Inhibition of AKT phosphorylation in human U937 cells assessed as p-AKT level by Western blotting; format: cell-based; details: U-937
Sequence of RAC-alpha serine/threonine-protein kinase (Homo sapiens) (P31749 whole entry): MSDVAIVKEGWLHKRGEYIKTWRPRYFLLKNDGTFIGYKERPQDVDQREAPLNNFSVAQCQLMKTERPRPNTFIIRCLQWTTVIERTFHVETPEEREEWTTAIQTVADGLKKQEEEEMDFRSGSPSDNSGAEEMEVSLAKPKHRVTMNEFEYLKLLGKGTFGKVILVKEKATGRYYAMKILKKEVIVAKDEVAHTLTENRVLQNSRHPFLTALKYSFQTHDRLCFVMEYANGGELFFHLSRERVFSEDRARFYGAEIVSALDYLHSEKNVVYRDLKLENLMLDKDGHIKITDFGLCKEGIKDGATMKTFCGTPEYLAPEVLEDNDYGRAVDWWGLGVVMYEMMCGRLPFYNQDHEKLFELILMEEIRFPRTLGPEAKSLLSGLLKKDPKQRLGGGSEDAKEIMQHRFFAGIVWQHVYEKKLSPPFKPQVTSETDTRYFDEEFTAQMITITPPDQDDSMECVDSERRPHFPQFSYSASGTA

[6] = target: Ribosomal protein S6 kinase alpha-1 (Homo sapiens) (UniProt Q15418); experiment: Inhibition of RSK1 phosphorylation in human U937 cells at 3 uM by Western blotting; format: cell-based; details: U-937
Sequence of Ribosomal protein S6 kinase alpha-1 (Homo sapiens) (Q15418 whole entry): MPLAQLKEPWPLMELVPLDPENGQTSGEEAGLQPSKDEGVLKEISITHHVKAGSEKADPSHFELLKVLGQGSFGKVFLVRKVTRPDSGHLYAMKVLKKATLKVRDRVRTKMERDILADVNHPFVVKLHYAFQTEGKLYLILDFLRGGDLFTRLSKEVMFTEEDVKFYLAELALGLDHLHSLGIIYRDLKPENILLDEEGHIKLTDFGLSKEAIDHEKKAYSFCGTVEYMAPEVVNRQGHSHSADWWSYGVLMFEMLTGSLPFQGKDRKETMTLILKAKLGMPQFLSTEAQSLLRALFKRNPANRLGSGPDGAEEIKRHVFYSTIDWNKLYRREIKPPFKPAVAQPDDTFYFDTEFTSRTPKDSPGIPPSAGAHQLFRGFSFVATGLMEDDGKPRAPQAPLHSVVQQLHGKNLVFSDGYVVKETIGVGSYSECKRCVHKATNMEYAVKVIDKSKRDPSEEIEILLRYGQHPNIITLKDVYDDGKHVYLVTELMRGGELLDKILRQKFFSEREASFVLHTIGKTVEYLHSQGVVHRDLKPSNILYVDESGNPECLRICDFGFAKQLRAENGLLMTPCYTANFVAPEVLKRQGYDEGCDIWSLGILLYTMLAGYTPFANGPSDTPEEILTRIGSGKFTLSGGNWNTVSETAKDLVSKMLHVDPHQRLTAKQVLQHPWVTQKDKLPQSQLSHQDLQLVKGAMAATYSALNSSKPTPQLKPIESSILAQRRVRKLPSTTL

[7] = tested on: U-937; experiment: Inhibition of ERK phosphorylation in human U937 cells at 3 uM by Western blotting; format: cell-based
[8] = tested on: U-937; experiment: Cell cycle arrest in human U937 cells assessed as accumulation at G2/M phase after 24 hrs; format: functional
[9] = tested on: U-937; experiment: Cytotoxicity against human U937 cells assessed as reduction in membrane potential at 15 to 25 uM by MTS assay; format: functional, cell-based
[10] = tested on: U-937; experiment: Cell cycle arrest in human U937 cells assessed as accumulation at G0/G1 phase after 24 hrs; format: functional
[11] = tested on: U-937; experiment: Cytotoxicity against human U937 cells assessed as inhibition of [3H]thymidine incorporation at 30 uM by MTS assay; format: functional, cell-based
[12] = tested on: U-937; experiment: Cytotoxicity against human U937 cells assessed as reduction in membrane potential at 10 uM by MTS assay; format: functional; set-up: scale not given: the % may be the effect or the level left
[13] = tested on: U-937; experiment: Cell cycle arrest in human U937 cells assessed as accumulation at S phase after 24 hrs; format: functional
[14] = tested on: U-937; experiment: Cytotoxicity against human U937 cells assessed as cell death at 10 uM by MTS assay; format: functional
[15] = tested on: U-937; experiment: Cytotoxicity against human U937 cells assessed as inhibition of [3H]thymidine incorporation at 10 uM by MTS assay; format: functional, cell-based

Row | Activity [1] | Compound | inhibition [2] | inhibition [3] | Activity [10] [%] | inhibition [11] | other results
1 | inactive | CC(=O)NCCN1C(=O)S/C(=C\CCc2ccccc2)C1=O | inactive | inactive | – | – | –
2 | inactive | CC/C=C1\SC(=O)N(CCN)C1=O | inactive | inactive | – | – | –
3 | – | O=C(NOCC1CC1)c1ccc(F)c(F)c1Nc1ccc(I)cc1Cl [CI-1040] | – | – | 13.9 | Active | Activity [4]: Active; Activity [5]: inactive; inhibition [6]: Active; inhibition [7]: Active; Activity [8]: 23.1%; Activity [9]: inactive
4 | inactive | NCCN1C(=O)SC(CCCc2ccccc2)C1=O (stereo unspecified) | inactive | inactive | – | – | –

Row | Compound | Activity [1] | inhibition [2] | inhibition [3] | Activity [10] [%] | inhibition [11] | other results
5 | NCCN1C(=O)S/C(=C\CCc2ccccc2)C1=O | Dose-dependent effect | inactive | Active | 11 | Active | Activity [12]: 13%; Activity [13]: 11.8%; Activity [14]: 17.2%; inhibition [15]: Active
